Measured values: patent publication US20240174662A1, “SMALL MOLECULE INHIBITORS OF SALT INDUCIBLE KINASES” (Janssen Biotech, Inc., priority 2021, published 2024)
Values joined by “and” are separate entries in the source; they are usually repeats but may differ in a detail not shown here. Equal values may be shown once.

Biological target: SIK2 (Homo sapiens (Human), UniProt Q9H0K1)
Test: SIK2 Enzymatic Assay Version 2 (High ATP)
Assay type: biochemical
Conditions: 3 mM ATP and 200 μM HDAC5tide final, ADP-Glo Max luminescence
Outline: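 Run at room temperature; SIK2 enzyme at 6 nM (2× final) preincubated with compound 30 min before reaction. ADP formation detected by ADP-Glo Max (2 h reagent, 1 h detection) with luminescence read-out.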

Sequence of SIK2 (Q9H0K1 whole entry, species assumed): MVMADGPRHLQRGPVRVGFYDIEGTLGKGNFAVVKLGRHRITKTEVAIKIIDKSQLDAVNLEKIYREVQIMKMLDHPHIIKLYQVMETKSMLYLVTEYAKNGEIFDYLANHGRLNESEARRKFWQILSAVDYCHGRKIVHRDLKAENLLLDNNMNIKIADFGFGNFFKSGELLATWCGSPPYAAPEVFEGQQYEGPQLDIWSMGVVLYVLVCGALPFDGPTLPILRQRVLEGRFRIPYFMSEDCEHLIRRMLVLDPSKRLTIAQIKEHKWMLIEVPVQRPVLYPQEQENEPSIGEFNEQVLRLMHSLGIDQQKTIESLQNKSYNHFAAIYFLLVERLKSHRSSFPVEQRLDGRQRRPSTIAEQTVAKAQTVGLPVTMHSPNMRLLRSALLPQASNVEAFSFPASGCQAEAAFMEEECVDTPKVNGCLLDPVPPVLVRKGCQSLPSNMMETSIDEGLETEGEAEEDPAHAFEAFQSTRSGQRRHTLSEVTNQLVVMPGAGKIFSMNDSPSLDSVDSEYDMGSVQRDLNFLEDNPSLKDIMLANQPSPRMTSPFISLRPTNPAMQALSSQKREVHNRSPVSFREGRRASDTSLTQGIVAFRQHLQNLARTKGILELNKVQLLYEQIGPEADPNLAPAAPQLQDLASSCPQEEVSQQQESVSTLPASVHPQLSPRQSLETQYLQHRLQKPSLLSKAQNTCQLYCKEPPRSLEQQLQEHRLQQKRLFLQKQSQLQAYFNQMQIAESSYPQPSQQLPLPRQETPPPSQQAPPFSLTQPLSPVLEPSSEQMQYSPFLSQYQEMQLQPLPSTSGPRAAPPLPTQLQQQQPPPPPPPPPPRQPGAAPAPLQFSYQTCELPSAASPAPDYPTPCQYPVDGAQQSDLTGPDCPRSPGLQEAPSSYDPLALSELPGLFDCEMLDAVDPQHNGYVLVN

SMILES	IC50
COC[C@@H]1C[C@H](Oc2noc(C)c2-c2ccn3nc(Nc4cc(C)c(C)nn4)cc3c2)CN1 [Example 390, N-(5,6-dimethylpyridazin-3-yl)-5-[3-[(3S,5S)-5-(methoxymethyl)pyrrolidin-3-yl]oxy-5-methyl-isoxazol-4-yl]pyrazolo[1,5-a]pyridin-2-amine]	70.8 nM
COC[C@@H]1C[C@H](Oc2noc(C)c2-c2ccn3nc(Nc4cc(C)c(C)nn4)cc3c2)CN1C [Example 391, N-(5,6-dimethylpyridazin-3-yl)-5-[3-[(3S,5S)-5-(methoxymethyl)-1-methyl-pyrrolidin-3-yl]oxy-5-methyl-isoxazol-4-yl]pyrazolo[1,5-a]pyridin-2-amine]	94.1 nM
Cc1ccc(Nc2cc3cc(-c4c(OC[C@H]5CCN5)cnn4C)ccn3n2)nn1 [Example 392, 5-[4-[[(2R)-azetidin-2-yl]methoxy]-2-methyl-pyrazol-3-yl]-N-(6-methylpyridazin-3-yl)pyrazolo[1,5-a]pyridin-2-amine]	73 nM
Cc1cnc(Nc2cc3cc(-c4c(OC[C@H]5CCN5)cnn4C)ccn3n2)cn1 [Example 393, 5-[4-[[(2R)-azetidin-2-yl]methoxy]-2-methyl-pyrazol-3-yl]-N-(5-methylpyrazin-2-yl)pyrazolo[1,5-a]pyridin-2-amine]	98.4 nM
Cn1ncc(OC[C@H]2CCN2)c1-c1ccn2nc(Nc3ccc(C4CC4)nn3)cc2c1 [Example 394, 5-[4-[[(2R)-azetidin-2-yl]methoxy]-2-methyl-pyrazol-3-yl]-N-(6-cyclopropylpyridazin-3-yl)pyrazolo[1,5-a]pyridin-2-amine]	103 nM
CN1CC[C@@H]1COc1cnn(C)c1-c1ccn2nc(Nc3ncc(F)cn3)cc2c1 [Example 395, N-(5-fluoropyrimidin-2-yl)-5-[2-methyl-4-[[(2R)-1-methylazetidin-2-yl]methoxy]pyrazol-3-yl]pyrazolo[1,5-a]pyridin-2-amine]	97.5 nM
Cn1ncc(OC2CNC2)c1-c1ccn2nc(NC(=O)C3CC3)cc2c1 [Example 397, N-[5-[4-(azetidin-3-yloxy)-2-methyl-pyrazol-3-yl]pyrazolo[1,5-a]pyridin-2-yl]cyclopropanecarboxamide]	128 nM
CCn1ncc(OC[C@@H]2CCN(C)C2)c1-c1ccn2nc(NC(=O)C3CC3)cc2c1 [Example 398, N-[5-[2-ethyl-4-[[(3R)-1-methylpyrrolidin-3-yl]methoxy]pyrazol-3-yl]pyrazolo[1,5-a]pyridin-2-yl]cyclopropanecarboxamide]	97.8 nM
Cn1ncc(OCC2(N)COC2)c1-c1ccn2nc(NC(=O)C3CC3)cc2c1 [Example 402, N-[5-[4-[(3-aminooxetan-3-yl)methoxy]-2-methyl-pyrazol-3-yl]pyrazolo[1,5-a]pyridin-2-yl]cyclopropanecarboxamide]	92.4 nM
Cn1ncc(OC[C@H](O)c2ccccc2)c1-c1ccn2nc(NC(=O)C3CC3)cc2c1 [Example 403, N-[5-[4-[(2R)-2-hydroxy-2-phenyl-ethoxy]-2-methyl-pyrazol-3-yl]pyrazolo[1,5-a]pyridin-2-yl]cyclopropanecarboxamide]	99.7 nM
Cn1ncc(O[C@H]2CC[C@@H](O)CC2)c1-c1ccn2nc(NC(=O)C3CC3)cc2c1 [Example 404, N-[5-[4-(4-hydroxycyclohexoxy)-2-methyl-pyrazol-3-yl]pyrazolo[1,5-a]pyridin-2-yl]cyclopropanecarboxamide]	120 nM
CN1CC(F)(COc2cnn(C)c2-c2ccn3nc(NC(=O)C4CC4)cc3c2)C1 [Example 405, N-[5-[4-[(3-fluoro-1-methyl-azetidin-3-yl)methoxy]-2-methyl-pyrazol-3-yl]pyrazolo[1,5-a]pyridin-2-yl]cyclopropanecarboxamide]	98.3 nM
COC1(COc2cnn(C)c2-c2ccn3nc(NC(=O)C4CC4)cc3c2)CN(C)C1 [Example 406, N-[5-[4-[(3-methoxy-1-methyl-azetidin-3-yl)methoxy]-2-methyl-pyrazol-3-yl]pyrazolo[1,5-a]pyridin-2-yl]cyclopropanecarboxamide]	174 nM
Cn1ncc(OC2CCNCC2)c1-c1ccn2nc(NC(=O)C3CC3)cc2c1 [Example 407, N-[5-[2-methyl-4-(4-piperidyloxy)pyrazol-3-yl]pyrazolo[1,5-a]pyridin-2-yl]cyclopropanecarboxamide]	86 nM
CCC1(COc2cnn(C)c2-c2ccn3nc(NC(=O)C4CC4)cc3c2)CN(C)C1 [Example 408, N-[5-[4-[(3-ethyl-1-methyl-azetidin-3-yl)methoxy]-2-methyl-pyrazol-3-yl]pyrazolo[1,5-a]pyridin-2-yl]cyclopropanecarboxamide]	79.5 nM
CN1CC(COc2cnn(C)c2-c2ccn3nc(NC(=O)C4CC4)cc3c2)(c2ccccc2)C1 [Example 410, N-[5-[2-methyl-4-[(1-methyl-3-phenyl-azetidin-3-yl)methoxy]pyrazol-3-yl]pyrazolo[1,5-a]pyridin-2-yl]cyclopropanecarboxamide]	72.5 nM
Cn1ncc(OC[C@@H]2CCCN2)c1-c1ccn2nc(NC(=O)C3CC3)cc2c1 [Example 412, N-[5-[2-methyl-4-[[(2S)-pyrrolidin-2-yl]methoxy]pyrazol-3-yl]pyrazolo[1,5-a]pyridin-2-yl]cyclopropanecarboxamide]	122 nM
Cn1ncc(OC[C@H]2CCN2CC#N)c1-c1ccn2nc(NC(=O)C3CC3)cc2c1 [Example 425, N-[5-[4-[[(2R)-1-(cyanomethyl)azetidin-2-yl]methoxy]-2-methyl-pyrazol-3-yl]pyrazolo[1,5-a]pyridin-2-yl]cyclopropanecarboxamide]	155 nM
Cn1ncc(OC[C@@H](N)C(C)(C)O)c1-c1ccn2nc(NC(=O)C3CC3)cc2c1 [Example 426, N-[5-[4-[(2R)-2-amino-3-hydroxy-3-methyl-butoxy]-2-methyl-pyrazol-3-yl]pyrazolo[1,5-a]pyridin-2-yl]cyclopropanecarboxamide]	71.6 nM
COCCN1CCC[C@@H]1COc1cnn(C)c1-c1ccn2nc(NC(=O)C3CC3)cc2c1 [Example 428, N-[5-[4-[[(2R)-1-(2-methoxyethyl)pyrrolidin-2-yl]methoxy]-2-methyl-pyrazol-3-yl]pyrazolo[1,5-a]pyridin-2-yl]cyclopropanecarboxamide]	183 nM

Other lines, results leading:

IC50	SMILES
60.5 nM and 93.2 nM	CN1CC[C@@H](COc2cnn(C)c2-c2ccn3nc(NC(=O)C4CC4)cc3c2)C1 [Example 396, N-[5-[2-methyl-4-[[(3R)-1-methylpyrrolidin-3-yl]methoxy]pyrazol-3-yl]pyrazolo[1,5-a]pyridin-2-yl]cyclopropanecarboxamide]
174 nM	CN1CC(Oc2cnn(C)c2-c2ccn3nc(NC(=O)C4CC4)cc3c2)C1 [Example 399, N-[5-[2-methyl-4-(1-methylazetidin-3-yl)oxy-pyrazol-3-yl]pyrazolo[1,5-a]pyridin-2-yl]cyclopropanecarboxamide]
108 nM	Cn1ncc(OC[C@H]2C[C@@H](N)C2)c1-c1ccn2nc(NC(=O)C3CC3)cc2c1 [Example 400, N-[5-[4-[(3-aminocyclobutyl)methoxy]-2-methyl-pyrazol-3-yl]pyrazolo[1,5-a]pyridin-2-yl]cyclopropanecarboxamide]
124 nM	CN1C[C@H](F)[C@H](Oc2cnn(C)c2-c2ccn3nc(NC(=O)C4CC4)cc3c2)C1 [Example 415, N-[5-[4-[(3R,4S)-4-fluoro-1-methyl-pyrrolidin-3-yl]oxy-2-methyl-pyrazol-3-yl]pyrazolo[1,5-a]pyridin-2-yl]cyclopropanecarboxamide]
73.6 nM	Cn1ncc(OC[C@@H]2CNC[C@H]2O)c1-c1ccn2nc(NC(=O)C3CC3)cc2c1 [Example 416, N-[5-[4-[[(3S,4S)-4-hydroxypyrrolidin-3-yl]methoxy]-2-methyl-pyrazol-3-yl]pyrazolo[1,5-a]pyridin-2-yl]cyclopropanecarboxamide]
130 nM	CN1C[C@@H](COc2cnn(C)c2-c2ccn3nc(NC(=O)C4CC4)cc3c2)[C@H](O)C1 [Example 417, N-[5-[4-[[(3S,4S)-4-hydroxy-1-methyl-pyrrolidin-3-yl]methoxy]-2-methyl-pyrazol-3-yl]pyrazolo[1,5-a]pyridin-2-yl]cyclopropanecarboxamide]
136 nM	CN1CCC[C@H]1COc1cnn(C)c1-c1ccn2nc(NC(=O)C3CC3)cc2c1 [Example 419, N-[5-[2-methyl-4-[[(2S)-1-methylpyrrolidin-2-yl]methoxy]pyrazol-3-yl]pyrazolo[1,5-a]pyridin-2-yl]cyclopropanecarboxamide]
171 nM	CCN1CCC[C@H]1COc1cnn(C)c1-c1ccn2nc(NC(=O)C3CC3)cc2c1 [Example 420, N-[5-[4-[[(2S)-1-ethylpyrrolidin-2-yl]methoxy]-2-methyl-pyrazol-3-yl]pyrazolo[1,5-a]pyridin-2-yl]cyclopropanecarboxamide]
96.9 nM	CO[C@@H]1CNC[C@H]1COc1cnn(C)c1-c1ccn2nc(NC(=O)C3CC3)cc2c1 [Example 422, N-[5-[4-[[(3S,4S)-4-methoxypyrrolidin-3-yl]methoxy]-2-methyl-pyrazol-3-yl]pyrazolo[1,5-a]pyridin-2-yl]cyclopropanecarboxamide]
151 nM	CO[C@@H]1CN(C)C[C@H]1COc1cnn(C)c1-c1ccn2nc(NC(=O)C3CC3)cc2c1 [Example 423, N-[5-[4-[[(3S,4S)-4-methoxy-1-methyl-pyrrolidin-3-yl]methoxy]-2-methyl-pyrazol-3-yl]pyrazolo[1,5-a]pyridin-2-yl]cyclopropanecarboxamide]
96.1 nM	CN1C[C@H](COc2cnn(C)c2-c2ccn3nc(NC(=O)C4CC4)cc3c2)[C@@H](O)C1 [Example 424, N-[5-[4-[[(3R,4R)-4-hydroxy-1-methyl-pyrrolidin-3-yl]methoxy]-2-methyl-pyrazol-3-yl]pyrazolo[1,5-a]pyridin-2-yl]cyclopropanecarboxamide]
73.5 nM	CCN1CCC[C@@H]1COc1cnn(C)c1-c1ccn2nc(NC(=O)C3CC3)cc2c1 [Example 427, N-[5-[4-[[(2R)-1-ethylpyrrolidin-2-yl]methoxy]-2-methyl-pyrazol-3-yl]pyrazolo[1,5-a]pyridin-2-yl]cyclopropanecarboxamide]
